“And” between values parts separate entries of the source, which are not always exact repeats. Equal entries are not always repeated. Inconclusive results and toxic doses are left out.
System: B6C3F1 mice, ip Sarcoma M5076, median survival T/C
Assay: NCI In Vivo Anticancer Drug Screen. Data for tumor model Sarcoma M5076 (intraperitoneal) in B6C3F1 mice
Details: endpoint: median survival time, higher = longer survival
Outline: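 Antitumour effect is judged in tumour-bearing mice by comparing survival after compound dosing against vehicle-only animals, reported as T/C.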

[1] = dose: 25.0 mg/kg/injection, schedule: Q04DX004 (ip), vehicle: saline with Tween-80
[2] = dose: 50.0 mg/kg/injection, schedule: Q04DX004 (ip), vehicle: DMSO
[3] = dose: 50.0 mg/kg/injection, schedule: Q04DX004 (ip), vehicle: saline with Tween-80
[4] = dose: 100.0 mg/kg/injection, schedule: Q04DX004 (ip), vehicle: DMSO
[5] = dose: 100.0 mg/kg/injection, schedule: Q04DX004 (ip), vehicle: saline with Tween-80
[6] = dose: 200.0 mg/kg/injection, schedule: Q04DX004 (ip), vehicle: saline with Tween-80
[7] = dose: 400.0 mg/kg/injection, schedule: Q04DX004 (ip), vehicle: saline with Tween-80
[8] = dose: 75.0 mg/kg/injection, schedule: Q04DX004 (ip), vehicle: saline with Tween-80
[9] = dose: 150.0 mg/kg/injection, schedule: Q04DX004 (ip), vehicle: saline with Tween-80
[10] = dose: 300.0 mg/kg/injection, schedule: Q04DX004 (ip), vehicle: saline with Tween-80
[11] = dose: 600.0 mg/kg/injection, schedule: Q04DX004 (ip), vehicle: saline with Tween-80
[12] = dose: 50.0 mg/kg/injection, schedule: Q04DX004 (ip), vehicle: Klucel (hydroxypropylcellulose) (HPC)
[13] = dose: 100.0 mg/kg/injection, schedule: Q04DX004 (ip), vehicle: Klucel (hydroxypropylcellulose) (HPC)
[14] = dose: 200.0 mg/kg/injection, schedule: Q04DX004 (ip), vehicle: Klucel (hydroxypropylcellulose) (HPC)
[15] = dose: 400.0 mg/kg/injection, schedule: Q04DX004 (ip), vehicle: Klucel (hydroxypropylcellulose) (HPC)
[16] = dose: 37.5 mg/kg/injection, schedule: Q04DX004 (ip), vehicle: saline with Tween-80

O=C(CN1CCOCC1)Nc1nc(-c2ccc(Cl)cc2)cs1
T/C (dose: 6.25 mg/kg/injection, schedule: Q04DX004 (ip), vehicle: DMSO): 100 % of control | T/C (dose: 12.5 mg/kg/injection, schedule: Q04DX004 (ip), vehicle: DMSO): 93 % of control | T/C (dose: 25.0 mg/kg/injection, schedule: Q04DX004 (ip), vehicle: DMSO): 121 % of control | T/C [1]: 112 % of control | T/C [2]: 89 % of control | T/C [3]: 92 % of control | T/C [4]: 87 % of control and 92 % of control | T/C [5]: 91 % of control | T/C [6]: 98 % of control | T/C [7]: 105 % of control

CCN1CCC(=C(c2ccccc2)c2ccccc2)C1
T/C (dose: 18.75 mg/kg/injection, schedule: Q04DX004 (ip), vehicle: Klucel (hydroxypropylcellulose) (HPC)): 105 % of control | T/C (dose: 37.5 mg/kg/injection, schedule: Q04DX004 (ip), vehicle: Klucel (hydroxypropylcellulose) (HPC)): 99 % of control

Nc1ccc2c(c1)C1(CCC2)NC(=O)NC1=O (stereo not given)
T/C [3]: 97 % of control | T/C [5]: 96 % of control | T/C [6]: 98 % of control | T/C [7]: 98 % of control

c1ccc2c(c1)oc1cc3c(cc12)nnc1cccn13
T/C (dose: 22.5 mg/kg/injection, schedule: Q04DX004 (ip), vehicle: Klucel (hydroxypropylcellulose) (HPC)): 92 % of control | T/C (dose: 45.0 mg/kg/injection, schedule: Q04DX004 (ip), vehicle: Klucel (hydroxypropylcellulose) (HPC)): 96 % of control | T/C (dose: 90.0 mg/kg/injection, schedule: Q04DX004 (ip), vehicle: Klucel (hydroxypropylcellulose) (HPC)): 94 % of control | T/C (dose: 180.0 mg/kg/injection, schedule: Q04DX004 (ip), vehicle: Klucel (hydroxypropylcellulose) (HPC)): 88 % of control | T/C (dose: 360.0 mg/kg/injection, schedule: Q04DX004 (ip), vehicle: Klucel (hydroxypropylcellulose) (HPC)): 92 % of control

CC1=NN(c2ccccc2)C(=O)C1=Nc1c(C)[nH]n(-c2ccccc2)c1=O
T/C [3]: 89 % of control | T/C [5]: 92 % of control | T/C [6]: 97 % of control | T/C [7]: 94 % of control

O=c1c(O)c(-c2cc(O)c(O)c(O)c2)oc2cc(O)cc(O)c12
T/C [8]: 111 % of control | T/C [9]: 111 % of control | T/C [10]: 101 % of control | T/C [11]: 99 % of control

O=C1c2cccc(NCCCNCCO)c2C(=O)c2cccc(NCCCNCCO)c21
T/C (dose: 12.5 mg/kg/injection, schedule: Q04DX004 (ip), vehicle: acid diluted with saline): 116 % of control | T/C (dose: 25.0 mg/kg/injection, schedule: Q04DX004 (ip), vehicle: acid diluted with saline): 99 % of control | T/C (dose: 50.0 mg/kg/injection, schedule: Q04DX004 (ip), vehicle: acid diluted with saline): 91 % of control

COc1ccc(O)cc1
T/C [1]: 102 % of control | T/C [3]: 98 % of control | T/C [5]: 105 % of control | T/C [6]: 113 % of control

CN(C)c1ccc2c(SCC(=O)OCC(=O)[C@@]3(O)CC[C@H]4[C@@H]5CCC6=CC(=O)C=C[C@]6(C)[C@H]5C(=O)C[C@@]43C)c3ccc(N(C)C)cc3nc2c1
T/C (dose: 25.0 mg/kg/injection, schedule: Q04DX004 (ip), vehicle: Klucel (hydroxypropylcellulose) (HPC)): 101 % of control | T/C [12]: 103 % of control | T/C [13]: 97 % of control | T/C [14]: 90 % of control | T/C [15]: 94 % of control

O=C(CN1CCC(O)(c2ccc(F)cc2)CC1)N1CCN(C/C=C/c2ccccc2)CC1
T/C [16]: 103 % of control | T/C [8]: 100 % of control | T/C [9]: 102 % of control | T/C [10]: 94 % of control | T/C [11]: 95 % of control

c1ccc(OCC2CO2)c(OCC2CO2)c1 (stereo not given)
T/C [3]: 111 % of control and 121 % of control | T/C [5]: 118 % of control and 123 % of control | T/C [6]: 156 % of control and 173 % of control

C[C@@]12C(=O)OC(=O)[C@]1(C)[C@H]1CC[C@@H]2O1
T/C (dose: 125.0 micrograms/kg/injection, schedule: Q01DX009 (ip), vehicle: acetone): 100 % of control | T/C (dose: 250.0 micrograms/kg/injection, schedule: Q01DX009 (ip), vehicle: acetone): 115 % of control | T/C (dose: 500.0 micrograms/kg/injection, schedule: Q01DX009 (ip), vehicle: acetone): 116 % of control | T/C (dose: 1000.0 micrograms/kg/injection, schedule: Q01DX009 (ip), vehicle: acetone): 100 % of control

CCOC(=O)/C=C1/SC(N2CCCCC2)C(=O)N1CC (stereo not given)
T/C [12]: 96 % of control | T/C [13]: 96 % of control | T/C [14]: 97 % of control | T/C [15]: 94 % of control

COC(=O)c1cc(=O)c2c(ccc3oc(=O)ccc32)[nH]1
T/C (dose: 12.5 mg/kg/injection, schedule: Q04DX004 (ip), vehicle: saline with Tween-80): 104 % of control | T/C [1]: 96 % of control | T/C [3]: 92 % of control | T/C [5]: 89 % of control | T/C [6]: 89 % of control

C=C1COC(O)(C2OCOC(C3CC(=O)NC(=O)C3)C2O)C1C (stereo not given)
T/C (dose: 4.0 micrograms/kg/injection, schedule: Q04DX004 (ip), vehicle: water): 112 % of control | T/C (dose: 8.0 micrograms/kg/injection, schedule: Q04DX004 (ip), vehicle: water): 117 % of control | T/C (dose: 13.8 micrograms/kg/injection, schedule: Q04DX004 (ip), vehicle: water): 105 % of control | T/C (dose: 16.0 micrograms/kg/injection, schedule: Q04DX004 (ip), vehicle: water): 117 % of control | T/C (dose: 23.04 micrograms/kg/injection, schedule: Q04DX004 (ip), vehicle: water): 116 % of control | T/C (dose: 38.0 micrograms/kg/injection, schedule: Q04DX004 (ip), vehicle: water): 162 % of control | T/C (dose: 38.4 micrograms/kg/injection, schedule: Q04DX004 (ip), vehicle: water): 110 % of control

CCOC(=O)/C=C1\CCC(C)n2c1nccc2=O (stereo not given)
T/C [16]: 102 % of control | T/C [8]: 86 % of control | T/C [9]: 96 % of control | T/C [10]: 101 % of control | T/C [11]: 106 % of control

COc1ccc(-c2cc(C(=O)Nc3cc(C(F)(F)F)cc(C(F)(F)F)c3)c3ccccc3n2)cc1
T/C [2]: 101 % of control | T/C [4]: 94 % of control | T/C (dose: 200.0 mg/kg/injection, schedule: Q04DX004 (ip), vehicle: DMSO): 110 % of control | T/C (dose: 400.0 mg/kg/injection, schedule: Q04DX004 (ip), vehicle: DMSO): 111 % of control

COc1cc2c(c(OC)c1O)-c1ccc(OC)c(=O)cc1[C@@H](NC(=O)C(F)(F)F)CC2
T/C (dose: 0.9 mg/kg/injection, schedule: Q04DX004 (ip), vehicle: Klucel (hydroxypropylcellulose) (HPC)): 110 % of control | T/C (dose: 1.55 mg/kg/injection, schedule: Q04DX004 (ip), vehicle: Klucel (hydroxypropylcellulose) (HPC)): 124 % of control | T/C (dose: 2.59 mg/kg/injection, schedule: Q04DX004 (ip), vehicle: Klucel (hydroxypropylcellulose) (HPC)): 122 % of control | T/C (dose: 4.32 mg/kg/injection, schedule: Q04DX004 (ip), vehicle: Klucel (hydroxypropylcellulose) (HPC)): 124 % of control | T/C (dose: 7.2 mg/kg/injection, schedule: Q04DX004 (ip), vehicle: Klucel (hydroxypropylcellulose) (HPC)): 124 % of control

CC(=O)C(Cl)C(=O)c1c(C)[nH]n(-c2ccccc2)c1=O (stereo not given)
T/C [12]: 99 % of control | T/C [13]: 113 % of control | T/C [14]: 92 % of control

CCc1c(C)c(SC)n(C)c(=O)c1C#N
T/C [3]: 111 % of control | T/C [5]: 111 % of control | T/C [6]: 111 % of control | T/C [7]: 96 % of control

C=C(c1ccc(OC)c(OC)c1)c1nccc2cc(OC)c(OC)cc12
T/C [13]: 102 % of control | T/C [14]: 119 % of control | T/C [15]: 98 % of control | T/C (dose: 800.0 mg/kg/injection, schedule: Q04DX004 (ip), vehicle: Klucel (hydroxypropylcellulose) (HPC)): 102 % of control

COc1cc2c(c(OC)c1OC)-c1ccc(SC)c(=O)cc1[C@@H](NC(C)=O)CC2
T/C (dose: 0.03 mg/kg/injection, schedule: Q04DX004 (ip), vehicle: Klucel (hydroxypropylcellulose) (HPC)): 102 % of control | T/C (dose: 0.05 mg/kg/injection, schedule: Q04DX004 (ip), vehicle: Klucel (hydroxypropylcellulose) (HPC)): 106 % of control | T/C (dose: 0.1 mg/kg/injection, schedule: Q04DX004 (ip), vehicle: Klucel (hydroxypropylcellulose) (HPC)): 104 % of control and 113 % of control | T/C (dose: 0.14 mg/kg/injection, schedule: Q04DX004 (ip), vehicle: Klucel (hydroxypropylcellulose) (HPC)): 114 % of control | T/C (dose: 0.19 mg/kg/injection, schedule: Q04DX004 (ip), vehicle: Klucel (hydroxypropylcellulose) (HPC)): 112 % of control | T/C (dose: 0.23 mg/kg/injection, schedule: Q04DX004 (ip), vehicle: Klucel (hydroxypropylcellulose) (HPC)): 116 % of control | T/C (dose: 0.45 mg/kg/injection, schedule: Q04DX004 (ip), vehicle: Klucel (hydroxypropylcellulose) (HPC)): 103 % of control

CCN(CC)c1ccc2[nH]c3c(C(N)=O)cc(=O)c(=O)c=3oc2c1
T/C [1]: 105 % of control | T/C [3]: 108 % of control | T/C [5]: 106 % of control | T/C [6]: 96 % of control
